Results on 17 molecules are retold here after patent US10717716B2, “1,3,4-oxadiazole derivative compounds as histone deacetylase 6 inhibitor, and the pharmaceutical composition comprising the same” (Chong Kun Dang Pharmaceutical Corp., priority 2015, dated 2020).

pIC50: −log10 of the molar value.

The target in one experiment is T1, human recombinant HDAC1 (Homo sapiens, UniProt Q13547).
T1 construct: purchased Enzo Life Science BML-SE456
The experiment is described as follows: HDAC1 enzyme activity inhibition assay (HDAC Fluorimetric Drug Discovery Kit). It counts as biochemical. The following applies: human recombinant HDAC1, Fluor de Lys substrate 10 μM, 30° C. 60 minutes. How it is done: In order to examine the HDAC6 selectivity of the compounds of formula I of the present invention by HDAC1 and HDAC6 enzymatic activity inhibition assays, an experiment was performed using a conventional substance as a control.
HDAC enzyme activity was measured using a HDAC Fluorimetric Drug Discovery Kit (BML-AK511, 516, Enzo Life Science). For the HDAC1 enzyme activity test, human recombinant HDAC1 (BML-SE456) was used as an enzyme source, and Fluor de Lys®-“SIRT1 (BNL-KI177) was used as a substrate. A 5-fold dilution of the compound was seeded into a 96-well plate, and then 0.3 μg of the enzyme and 10 μM of the substrate were added to each well of the plate and allowed to react at 30° C. for 60 minutes. Then, Fluor de Lys®-Developer II (BML-KI176) was added thereto and allowed to react for 30 minutes, after which the fluorescence value (Ex 360, Em 460) was measured using a multi-plate reader (Flexstation 3, Molecular Device). The HDAC6 enzyme was tested using human recombinant HDAC6 (382180) (Calbiochem) according to the same protocol as the HDAC1 enzyme activity test method. Based on the resulting values, each IC5, value was calculated using GraphPad Prism4.0 program.

Another experiment addresses T2, human recombinant HDAC6 (Homo sapiens, UniProt Q9UBN7).
T2 construct: purchased Calbiochem 382180
T2 sequence (Q9UBN7 1-1215): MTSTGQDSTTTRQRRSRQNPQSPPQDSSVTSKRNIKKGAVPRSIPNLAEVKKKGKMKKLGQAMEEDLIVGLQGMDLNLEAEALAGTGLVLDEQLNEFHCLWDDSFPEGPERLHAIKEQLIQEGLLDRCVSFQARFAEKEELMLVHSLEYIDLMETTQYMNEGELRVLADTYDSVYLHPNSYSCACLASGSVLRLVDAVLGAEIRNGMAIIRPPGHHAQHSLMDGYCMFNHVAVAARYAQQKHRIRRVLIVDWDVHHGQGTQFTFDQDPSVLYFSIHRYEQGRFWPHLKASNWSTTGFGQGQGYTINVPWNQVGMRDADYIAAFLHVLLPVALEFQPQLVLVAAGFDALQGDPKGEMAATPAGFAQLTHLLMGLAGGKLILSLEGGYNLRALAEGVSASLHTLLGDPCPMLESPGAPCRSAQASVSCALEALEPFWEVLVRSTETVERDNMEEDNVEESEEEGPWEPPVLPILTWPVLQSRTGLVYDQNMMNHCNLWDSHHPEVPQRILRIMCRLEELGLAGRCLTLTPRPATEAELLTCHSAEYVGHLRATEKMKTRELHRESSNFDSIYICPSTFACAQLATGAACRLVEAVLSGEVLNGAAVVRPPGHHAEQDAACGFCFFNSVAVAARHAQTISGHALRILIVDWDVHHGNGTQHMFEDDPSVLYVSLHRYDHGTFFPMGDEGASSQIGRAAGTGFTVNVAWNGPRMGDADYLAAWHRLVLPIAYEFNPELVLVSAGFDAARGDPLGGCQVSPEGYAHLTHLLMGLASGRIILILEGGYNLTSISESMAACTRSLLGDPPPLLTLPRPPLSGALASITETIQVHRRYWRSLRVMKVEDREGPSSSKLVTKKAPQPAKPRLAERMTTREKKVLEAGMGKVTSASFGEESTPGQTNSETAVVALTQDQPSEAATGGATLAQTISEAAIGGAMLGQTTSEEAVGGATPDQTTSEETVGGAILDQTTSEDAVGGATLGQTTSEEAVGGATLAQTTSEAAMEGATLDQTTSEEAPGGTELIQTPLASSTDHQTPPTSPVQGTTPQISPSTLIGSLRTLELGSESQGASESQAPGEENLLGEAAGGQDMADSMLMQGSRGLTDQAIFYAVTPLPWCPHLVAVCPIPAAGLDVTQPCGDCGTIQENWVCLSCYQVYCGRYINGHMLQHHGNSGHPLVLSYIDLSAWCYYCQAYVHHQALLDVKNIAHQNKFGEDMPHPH
The experiment is described as follows: HDAC6 enzyme activity inhibition assay (HDAC Fluorimetric Drug Discovery Kit). It counts as biochemical. The following applies: for HDAC6 selectivity (fold): HDAC6 over HDAC1; for pIC50: human recombinant HDAC6, same protocol as HDAC1, read-out: HDAC6. The method in brief: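 Fluorimetric deacetylase assay: 5-fold serial compound dilutions, 0.3 μg recombinant human enzyme (HDAC1 or HDAC6, same protocol), 10 μM Fluor de Lys-SIRT1 substrate, 60 min at 30 °C. Signal developed 30 min, measured at 360/460 nm; IC50 values derived.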

T1 sequence (Q13547 whole entry): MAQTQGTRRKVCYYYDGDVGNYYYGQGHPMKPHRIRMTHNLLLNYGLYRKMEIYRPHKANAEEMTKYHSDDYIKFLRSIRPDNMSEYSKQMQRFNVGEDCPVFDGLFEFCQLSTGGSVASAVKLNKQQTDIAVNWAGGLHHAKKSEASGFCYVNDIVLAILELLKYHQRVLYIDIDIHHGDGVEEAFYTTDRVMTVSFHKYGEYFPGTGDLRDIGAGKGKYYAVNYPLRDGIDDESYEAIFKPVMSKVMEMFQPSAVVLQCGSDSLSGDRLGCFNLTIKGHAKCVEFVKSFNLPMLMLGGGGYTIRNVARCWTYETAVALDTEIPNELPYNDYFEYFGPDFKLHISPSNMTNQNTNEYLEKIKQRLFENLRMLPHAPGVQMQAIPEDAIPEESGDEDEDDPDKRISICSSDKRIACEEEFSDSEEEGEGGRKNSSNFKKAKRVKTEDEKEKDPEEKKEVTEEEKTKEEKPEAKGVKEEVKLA

For `O=C(N1CCOCC1)N(Cc1ccc(-c2nnc(C(F)(F)F)o2)cc1)c1ccccc1` [Compound 21249, N-phenyl-N-(4-(5-(trifluoromethyl)-1,3,4-oxadiazol-2-yl)benzyl)morpholine-4-carboxamide], the pIC50 at human recombinant HDAC1 was 5.00; on human recombinant HDAC6, 7.06. In addition, at human recombinant HDAC6, the “HDAC6 selectivity (fold)” value is given as 115 fold.
For `O=C(N1CCS(=O)(=O)CC1)N(Cc1ccc(-c2nnc(C(F)(F)F)o2)cc1)c1ccc(F)cc1` [Compound 21389, N-(4-Fluorophenyl)-N-(4-(5-(trifluoromethyl)-1,3,4-oxadiazol-2-yl)benzyl)thiomorpholine-4-carboxamide 1,1-dioxide], in that order: 5.20, 7.03 and 68 fold.
With `COc1ccc(N(Cc2ccc(-c3nnc(C(F)(F)F)o3)cc2)C(=O)N2CCS(=O)(=O)CC2)cc1` [Compound 21390, N-(4-methoxyphenyl)-N-(4-(5-(trifluoromethyl)-1,3,4-oxadiazol-2-yl)benzyl)thiomorpholine-4-carboxamide 1,1-dioxide], on human recombinant HDAC1, the pIC50 was 5.28. Moreover, on human recombinant HDAC6, the “HDAC6 selectivity (fold)” value amounted to 17 fold and the pIC50 was 6.50.
As to `O=C(N1CCS(=O)(=O)CC1)N(Cc1ccc(-c2nnc(C(F)(F)F)o2)cc1)c1cccc(Br)c1` [Compound 21393, N-(3-bromophenyl)-N-(4-(5-(trifluoromethyl)-1,3,4-oxadiazol-2-yl)benzyl)thiomorpholine-4-carboxamide 1,1-dioxide], the pIC50 at human recombinant HDAC1 was 5.05. Also, at human recombinant HDAC6, the “HDAC6 selectivity (fold)” value is on record as 65 fold and the pIC50 is 6.86.
For `O=C(N1CCS(=O)(=O)CC1)N(Cc1ccc(-c2nnc(C(F)(F)F)o2)cc1)c1cccc(-c2ccoc2)c1` [Compound 21435, N-(3-(furan-3-yl)phenyl)-N-(4-(5-(trifluoromethyl)-1,3,4-oxadiazol-2-yl)benzyl)thiomorpholine-4-carboxamide 1,1-dioxide], in that order: 5.47, 12 fold and 6.54.
The matching figures for `O=C(N1CCS(=O)(=O)CC1)N(Cc1ccc(-c2nnc(C(F)(F)F)o2)cc1)c1cccc(-c2cccnc2)c1` [Compound 21436, N-(3-(pyridin-3-yl)phenyl)-N-(4-(5-(trifluoromethyl)-1,3,4-oxadiazol-2-yl)benzyl)thiomorpholine-4-carboxamide 1,1-dioxide]: 5.24, 13 fold and 6.36.
For `O=C(N1CCS(=O)(=O)CC1)N(Cc1ccc(-c2nnc(C(F)(F)F)o2)cc1)c1cccc(-c2ccc3c(c2)OCO3)c1` [Compound 21437, N-(3-(benzo[d][1,3]dioxol-5-yl)phenyl)-N-(4-(5-(trifluoromethyl)-1,3,4-oxadiazol-2-yl)benzyl)thiomorpholine-4-carboxamide 1,1-dioxide], in that order: 5.09, 11 fold and 6.13.
In the case of `O=C(NCCN1CCN(Cc2ccccc2)CC1)N(Cc1ccc(-c2nnc(C(F)F)o2)cc1F)c1ccccc1` [Compound 22013, 3-(2-(4-Benzylpiperazin-1-yl)ethyl)-1-(4-(5-(difluoromethyl)-1,3,4-oxadiazol-2-yl)-2-fluorobenzyl)-1-phenylurea], on human recombinant HDAC6, the “HDAC6 selectivity (fold)” value was 51 fold and the pIC50 was 6.71.
For `O=C(NCCN1CCN(CCc2ccccc2)CC1)N(Cc1ccc(-c2nnc(C(F)F)o2)cc1F)c1ccccc1` [Compound 22014, 1-(4-(5-(Difluoromethyl)-1,3,4-oxadiazol-2-yl)-2-fluorobenzyl)-3-(2-(4-phenethylpiperazin-1-yl)ethyl)-1-phenylurea], in that order: 46 fold and 6.66.
`O=C(NCCN1CCN(CCc2ccncc2)CC1)N(Cc1ccc(-c2nnc(C(F)F)o2)cc1F)c1ccccc1` [Compound 22015, 1-(4-(5-(Difluoromethyl)-1,3,4-oxadiazol-2-yl)-2-fluorobenzyl)-1-phenyl-3-(2-(4-(2-(pyridin-4-yl)ethyl)piperazin-1-yl)ethyl)urea]: at human recombinant HDAC6, the “HDAC6 selectivity (fold)” value was found to be 105 fold and the pIC50 was 7.02.
For `O=C(NCCN1CCN(C/C=C/c2ccccc2)CC1)N(Cc1ccc(-c2nnc(C(F)F)o2)cc1F)c1ccccc1` [Compound 22016, 3-(2-(4-Cinnamylpiperazin-1-yl)ethyl)-1-(4-(5-(difluoromethyl)-1,3,4-oxadiazol-2-yl)-2-fluorobenzyl)-1-phenylurea], in that order: 42 fold and 6.63.
The matching figures for `O=C(NCCN(Cc1ccccc1)Cc1ccccc1)N(Cc1ccc(-c2nnc(C(F)F)o2)cc1F)c1ccccc1` [Compound 22017, 3-(2-(Dibenzylamino)ethyl)-1-(4-(5-(difluoromethyl)-1,3,4-oxadiazol-2-yl)-2-fluorobenzyl)-1-phenylurea]: 7 fold and 5.86.
As to `O=C(N1CCOCC1)N(Cc1ccc(-c2nnc(C(F)F)o2)cc1F)c1nccs1` [Compound 22018, N-(4-(5-(Difluoromethyl)-1,3,4-oxadiazol-2-yl)-2-fluorobenzyl)-N-(thiazol-2-yl)morpholine-4-carboxamide], on human recombinant HDAC6, the “HDAC6 selectivity (fold)” value amounted to 4 fold and the pIC50 is 5.62.
`O=C(N1CCOCC1)N(Cc1ccc(-c2nnc(C(F)F)o2)cc1F)c1cccs1` [Compound 22019, N-(4-(5-(Difluoromethyl)-1,3,4-oxadiazol-2-yl)-2-fluorobenzyl)-N-(thiophen-2-yl)morpholine-4-carboxamide]: at human recombinant HDAC6, the “HDAC6 selectivity (fold)” value stood at 79 fold and the pIC50 is 6.90.
For `O=C(N1CCS(=O)(=O)CC1)N(Cc1ccc(-c2nnc(C(F)F)o2)cc1F)c1cccs1` [Compound 22020, N-(4-(5-(Difluoromethyl)-1,3,4-oxadiazol-2-yl)-2-fluorobenzyl)-N-(thiophen-2-yl)thiomorpholine-4-carboxamide 1,1-dioxide], in that order: 73 fold and 6.86.
For `O=C(N1CCS(=O)(=O)CC1)N(Cc1ccc(-c2nnc(C(F)F)o2)cc1F)c1ccsc1` [Compound 22021, N-(4-(5-(Difluoromethyl)-1,3,4-oxadiazol-2-yl)-2-fluorobenzyl)-N-(thiophen-3-yl)thiomorpholine-4-carboxamide 1,1-dioxide], in that order: 101 fold and 7.00.
Consider `CCN1CCN(Cc2cccc(N(Cc3ccc(-c4nnc(C(F)F)o4)cc3F)C(=O)N3CCS(=O)(=O)CC3)c2)CC1` [Compound 22024, N-(4-(5-(difluoromethyl)-1,3,4-oxadiazol-2-yl)-2-fluorobenzyl)-N-(3-((4-ethylpiperazin-1-yl)methyl)phenyl)thiomorpholine-4-carboxamide 1,1-dioxide], for which, on human recombinant HDAC6, the “HDAC6 selectivity (fold)” value is 36 fold and the pIC50 was 6.55.
